The values that follow come from patent US11850259B2, “Methods of treating viral infections affecting the respiratory tract using topically administered lithium agents” (United States Government as Represented by the Department …, priority 2020, dated 2023).

Data set [1] deals with MSU-induced gout in the rat ankle. The following applies: photomicrograph at 2-times magnification after topical administration. An excerpt:
It was anticipated that the pathology may bring additional clarity to show lithium carbonate's action on the cytokine storm. Rat ankle samples banked in formalin were sent for microscopic analysis.

Data set [2] has the same test system. Conditions: for KC-GRO (KC/GRO) level: synovial fluid, eight hours post MSU-induced gout.
The conditions of data set [3]: applied to the epithelium of the skin, gout model.
Excerpt: Once that occurred, the lithium acted on the tissues and blood vessels surrounding the joint, preventing the entry of the inflammatory cells into the joint.
The target of data set [4] is GSK3B (Homo sapiens, UniProt P49841). Conditions: in neutrophils; cited from earlier work.
For data set [5] the following is noted: serum of subjects tested; cited from earlier work.
Setting [6] is: BRT rat MSU model, eight hours post MSU, topical application.

Where two headings read alike, the source gives them in different places. Bounds are passed on as bounds.

Sequence of GSK3B (P49841 whole entry, species assumed): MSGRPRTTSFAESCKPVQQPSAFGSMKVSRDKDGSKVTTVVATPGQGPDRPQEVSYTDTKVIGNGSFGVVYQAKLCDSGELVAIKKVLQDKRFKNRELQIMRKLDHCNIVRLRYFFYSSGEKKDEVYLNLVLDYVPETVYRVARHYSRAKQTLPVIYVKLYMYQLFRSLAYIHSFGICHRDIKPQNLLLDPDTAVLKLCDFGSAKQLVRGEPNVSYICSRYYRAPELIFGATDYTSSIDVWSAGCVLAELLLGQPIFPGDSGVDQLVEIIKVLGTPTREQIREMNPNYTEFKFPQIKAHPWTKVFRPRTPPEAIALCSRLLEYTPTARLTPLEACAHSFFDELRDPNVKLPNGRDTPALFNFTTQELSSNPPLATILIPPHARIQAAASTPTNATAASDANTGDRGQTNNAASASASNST

Turning to `O=C([O-])[O-].[Li+].[Li+]` [lithium carbonate], in data set [1], the Edema entry is recorded as “minimal edema”, the “Raft of white blood cells” value is “only a very small raft of white blood cells” and the Synovial hypertrophy result is given as “minimal synovial hypertrophy”. In addition, in data set [2] (setting [6]), the IL-1β level result is reported as “induction”, the IL-6 level entry was “induction” and the TNF-α level entry is listed as “induction”. The “KC-GRO (KC/GRO) level” value in data set [2] (rat ankle, topical application) is listed as “Attenuation”. The “KC-GRO (KC/GRO) level” value in data set [2] (rat ankle, topical application, listed as lithium) was “surprisingly lessened”. Also, in data set [2] (topical application of 2% lithium carbonate, rat ankle), the Effect on gout entry is “attenuated gout”. Besides, the “Penetration of skin epithelium” value in data set [3] is recorded as “penetrated to the synovium”. The “Increase of TNF-α protein synthesis” value in data set [4] was above 3 fold. In addition, in data set [5], the IL-1β in serum result was “consistent increase”, the IL-6 in serum result is “consistent increase” and the TNF-α in serum result is given as “consistent increase”.
